From publication PMC6353901, “Systematic characterization of position one variants within the lantibiotic nisin” (Scientific Reports, 2019)

Tested on: NisP
Assay: Leader peptide cleavage of pre-nisin variants by NisP (RP-HPLC)
Assay type: biochemical, Lactococcus lactis
Conditions: in vitro cleavage of the leader peptide from purified pre-nisin (variant) by purified secreted NisP, overnight at 8 °C, integration of leader peptide peaks
Source text: Step IV concerns leader peptide cleavage and thereby activation of the purified pre-nisin variants. Here, we used the secreted variant of the natural leader peptidase NisP, by which the leader peptide is cleaved in vitro and the cleavage efficiency (%) can be calculated as recently shown. We used an RP-HPLC set-up to monitor product formation, in which the appearance of the leader peptide in the chromatograms was used to determine the concentration of activated nisin (Supplementary Fig. S3). […] The nisin core peptide eluted at a later retention time of approximately 23 min (Supplementary Fig. S3). […] However, in the case of the I1 mutants I1A, I1G, I1T, I1S, I1K, I1R, I1H, I1Q, I1E, I1N and I1D) the formation of a core peptide peak in terms of a new and separated peak in the chromatogram was not observed (Supplementary Fig. S4). Rather, the peaks with a retention time between 18–21 min contained both species, the cleaved and non-cleaved lantibiotic, and can therefore not be deconvoluted for proper determination of the amount of activated nisin. […] The concentration was calculated based on a standard calibration curve (Supplementary Fig. S5), where we precisely determined the concentration of the activated nisin or I1 mutants. We used this concentration determination instead of the colorimetric protein concentration determination as for example Bradford or the BCA-assay since the latter two assays cannot differentiate between the activated and non-activated form of the secreted variants. Since nisin is not active unless the leader is cleaved off, the determination of the area of the leader peak to calculate the amount of the activated lantibiotic directly relates to the antimicrobial activity without need to further purify the peptide after cleavage.
All I1 mutations were subjected to NisP cleavage and most of the variants were cleaved, but a strong influence of the nature of the I1 substitutions with respect to cleavage efficiency was observed (Supplementary Fig. S6). The cleavage efficiency for wild type pre-nisin A was 94.3 ± 1.7% but lower for the mutants I1M, I1L, I1A and I1V (72.3 ± 1.4%, 72.4 ± 1.3%, 81.0 ± 1.8% and 58.1± 2.8%, respectively). […] This holds especially in those cases, where the amino acid at position one was exchanged to a charged amino acid (e.g. I1K 9.2 ± 1.3%; I1E 9.5 ± 0.7%) or contained a bulky hydrophobic side chain (e.g. I1F 12.9 ± 0.8%; I1W 5.7 ± 0.2%; I1Y 22.6 ± 2.3%) (Supplementary Fig. S6). […] Even after an extensive prolongation of the incubation time, no leader peptide peak was detected in the RP-HPLC chromatogram (Supplementary Fig. S4). It is important to stress in this context that the cleavage efficiencies cannot be determined from Tricine-SDS gels (20%). Here, the leader peptide as well as the core peptide would co-migrate, which obviously will falsify the staining results.
Pre-nisin and its variants were expressed and purified as previously described[41],[49],[69]. The purity of pre-nisin and its variants was controlled by Tricine-SDS-PAGE (20%)[70]. The activation of all variants was performed by NisP cleavage overnight at 8 °C. Pre-nisin cleavage and its variants was monitored by RP-HPLC[49],[69].
Pre-nisin and the activated nisin variants were analysed by RP-HPLC (Agilent Technologies 1260 Infinity II) with a LiChrospher WP 300 RP-18 end-capped column and an acetonitrile/water solvent system. The cleavage efficiency and the concentration of active lantibiotic was calculated as described previously[49],[69].

Compound | cleavage efficiency by NisP [%]
C=C(NC(=O)[C@@H](NC(=O)[C@H](Cc1c[nH]cn1)NC(=O)[C@@H](NC(=O)[C@H](CO)NC(=O)[C@@H]1CS[C@@H](C)[C@H]2NC(=O)[C@H](C)NC(=O)[C@H](NC(=O)[C@H](CCCCN)NC(=O)[C@H](CCSC)NC(=O)[C@H](CC(N)=O)NC(=O)[C@@H]3CS[C@@H](C)[C@@H](NC(=O)[C@H](CCCCN)NC(=O)[C@@H]4CS[C@@H](C)[C@@H](NC(=O)[C@@H]5CSC[C@@H](NC(=O)/C(=C/C)NC(=O)[C@H](C)N)C(=O)N[C@@H]([C@@H](C)CC)C(=O)NC(=C)C(=O)N[C@@H](CC(C)C)C(=O)N5)C(=O)N5CCC[C@H]5C(=O)NCC(=O)N4)C(=O)NCC(=O)N[C@@H](C)C(=O)N[C@@H](CC(C)C)C(=O)N[C@@H](CCSC)C(=O)NCC(=O)N3)[C@H](C)SC[C@H](NC2=O)C(=O)N[C@@H](Cc2c[nH]cn2)C(=O)N1)[C@@H](C)CC)C(C)C)C(=O)N[C@@H](CCCCN)C(=O)O [I1A] | 81.0 ± 1.8
C=C(NC(=O)[C@@H](NC(=O)[C@H](Cc1c[nH]cn1)NC(=O)[C@@H](NC(=O)[C@H](CO)NC(=O)[C@@H]1CS[C@@H](C)[C@H]2NC(=O)[C@H](C)NC(=O)[C@H](NC(=O)[C@H](CCCCN)NC(=O)[C@H](CCSC)NC(=O)[C@H](CC(N)=O)NC(=O)[C@@H]3CS[C@@H](C)[C@@H](NC(=O)[C@H](CCCCN)NC(=O)[C@@H]4CS[C@@H](C)[C@@H](NC(=O)[C@@H]5CSC[C@@H](NC(=O)/C(=C/C)NC(=O)[C@@H](N)CCC(=O)O)C(=O)N[C@@H]([C@@H](C)CC)C(=O)NC(=C)C(=O)N[C@@H](CC(C)C)C(=O)N5)C(=O)N5CCC[C@H]5C(=O)NCC(=O)N4)C(=O)NCC(=O)N[C@@H](C)C(=O)N[C@@H](CC(C)C)C(=O)N[C@@H](CCSC)C(=O)NCC(=O)N3)[C@H](C)SC[C@H](NC2=O)C(=O)N[C@@H](Cc2c[nH]cn2)C(=O)N1)[C@@H](C)CC)C(C)C)C(=O)N[C@@H](CCCCN)C(=O)O [I1E] | 9.5 ± 0.7
C=C(NC(=O)[C@@H](NC(=O)[C@H](Cc1c[nH]cn1)NC(=O)[C@@H](NC(=O)[C@H](CO)NC(=O)[C@@H]1CS[C@@H](C)[C@H]2NC(=O)[C@H](C)NC(=O)[C@H](NC(=O)[C@H](CCCCN)NC(=O)[C@H](CCSC)NC(=O)[C@H](CC(N)=O)NC(=O)[C@@H]3CS[C@@H](C)[C@@H](NC(=O)[C@H](CCCCN)NC(=O)[C@@H]4CS[C@@H](C)[C@@H](NC(=O)[C@@H]5CSC[C@@H](NC(=O)/C(=C/C)NC(=O)[C@@H](N)Cc6ccccc6)C(=O)N[C@@H]([C@@H](C)CC)C(=O)NC(=C)C(=O)N[C@@H](CC(C)C)C(=O)N5)C(=O)N5CCC[C@H]5C(=O)NCC(=O)N4)C(=O)NCC(=O)N[C@@H](C)C(=O)N[C@@H](CC(C)C)C(=O)N[C@@H](CCSC)C(=O)NCC(=O)N3)[C@H](C)SC[C@H](NC2=O)C(=O)N[C@@H](Cc2c[nH]cn2)C(=O)N1)[C@@H](C)CC)C(C)C)C(=O)N[C@@H](CCCCN)C(=O)O [I1F] | 12.9 ± 0.8
C=C(NC(=O)[C@@H](NC(=O)[C@H](Cc1c[nH]cn1)NC(=O)[C@@H](NC(=O)[C@H](CO)NC(=O)[C@@H]1CS[C@@H](C)[C@H]2NC(=O)[C@H](C)NC(=O)[C@H](NC(=O)[C@H](CCCCN)NC(=O)[C@H](CCSC)NC(=O)[C@H](CC(N)=O)NC(=O)[C@@H]3CS[C@@H](C)[C@@H](NC(=O)[C@H](CCCCN)NC(=O)[C@@H]4CS[C@@H](C)[C@@H](NC(=O)[C@@H]5CSC[C@@H](NC(=O)/C(=C/C)NC(=O)[C@@H](N)CCCCN)C(=O)N[C@@H]([C@@H](C)CC)C(=O)NC(=C)C(=O)N[C@@H](CC(C)C)C(=O)N5)C(=O)N5CCC[C@H]5C(=O)NCC(=O)N4)C(=O)NCC(=O)N[C@@H](C)C(=O)N[C@@H](CC(C)C)C(=O)N[C@@H](CCSC)C(=O)NCC(=O)N3)[C@H](C)SC[C@H](NC2=O)C(=O)N[C@@H](Cc2c[nH]cn2)C(=O)N1)[C@@H](C)CC)C(C)C)C(=O)N[C@@H](CCCCN)C(=O)O [I1K] | 9.2 ± 1.3
C=C(NC(=O)[C@@H](NC(=O)[C@H](Cc1c[nH]cn1)NC(=O)[C@@H](NC(=O)[C@H](CO)NC(=O)[C@@H]1CS[C@@H](C)[C@H]2NC(=O)[C@H](C)NC(=O)[C@H](NC(=O)[C@H](CCCCN)NC(=O)[C@H](CCSC)NC(=O)[C@H](CC(N)=O)NC(=O)[C@@H]3CS[C@@H](C)[C@@H](NC(=O)[C@H](CCCCN)NC(=O)[C@@H]4CS[C@@H](C)[C@@H](NC(=O)[C@@H]5CSC[C@@H](NC(=O)/C(=C/C)NC(=O)[C@@H](N)CC(C)C)C(=O)N[C@@H]([C@@H](C)CC)C(=O)NC(=C)C(=O)N[C@@H](CC(C)C)C(=O)N5)C(=O)N5CCC[C@H]5C(=O)NCC(=O)N4)C(=O)NCC(=O)N[C@@H](C)C(=O)N[C@@H](CC(C)C)C(=O)N[C@@H](CCSC)C(=O)NCC(=O)N3)[C@H](C)SC[C@H](NC2=O)C(=O)N[C@@H](Cc2c[nH]cn2)C(=O)N1)[C@@H](C)CC)C(C)C)C(=O)N[C@@H](CCCCN)C(=O)O [I1L] | 72.4 ± 1.3
C=C(NC(=O)[C@@H](NC(=O)[C@H](Cc1c[nH]cn1)NC(=O)[C@@H](NC(=O)[C@H](CO)NC(=O)[C@@H]1CS[C@@H](C)[C@H]2NC(=O)[C@H](C)NC(=O)[C@H](NC(=O)[C@H](CCCCN)NC(=O)[C@H](CCSC)NC(=O)[C@H](CC(N)=O)NC(=O)[C@@H]3CS[C@@H](C)[C@@H](NC(=O)[C@H](CCCCN)NC(=O)[C@@H]4CS[C@@H](C)[C@@H](NC(=O)[C@@H]5CSC[C@@H](NC(=O)/C(=C/C)NC(=O)[C@@H](N)CCSC)C(=O)N[C@@H]([C@@H](C)CC)C(=O)NC(=C)C(=O)N[C@@H](CC(C)C)C(=O)N5)C(=O)N5CCC[C@H]5C(=O)NCC(=O)N4)C(=O)NCC(=O)N[C@@H](C)C(=O)N[C@@H](CC(C)C)C(=O)N[C@@H](CCSC)C(=O)NCC(=O)N3)[C@H](C)SC[C@H](NC2=O)C(=O)N[C@@H](Cc2c[nH]cn2)C(=O)N1)[C@@H](C)CC)C(C)C)C(=O)N[C@@H](CCCCN)C(=O)O [I1M] | 72.3 ± 1.4
C=C(NC(=O)[C@@H](NC(=O)[C@H](Cc1c[nH]cn1)NC(=O)[C@@H](NC(=O)[C@H](CO)NC(=O)[C@@H]1CS[C@@H](C)[C@H]2NC(=O)[C@H](C)NC(=O)[C@H](NC(=O)[C@H](CCCCN)NC(=O)[C@H](CCSC)NC(=O)[C@H](CC(N)=O)NC(=O)[C@@H]3CS[C@@H](C)[C@@H](NC(=O)[C@H](CCCCN)NC(=O)[C@@H]4CS[C@@H](C)[C@@H](NC(=O)[C@@H]5CSC[C@@H](NC(=O)/C(=C/C)NC(=O)[C@@H](N)C(C)C)C(=O)N[C@@H]([C@@H](C)CC)C(=O)NC(=C)C(=O)N[C@@H](CC(C)C)C(=O)N5)C(=O)N5CCC[C@H]5C(=O)NCC(=O)N4)C(=O)NCC(=O)N[C@@H](C)C(=O)N[C@@H](CC(C)C)C(=O)N[C@@H](CCSC)C(=O)NCC(=O)N3)[C@H](C)SC[C@H](NC2=O)C(=O)N[C@@H](Cc2c[nH]cn2)C(=O)N1)[C@@H](C)CC)C(C)C)C(=O)N[C@@H](CCCCN)C(=O)O [I1V] | 58.1± 2.8
C=C(NC(=O)[C@@H](NC(=O)[C@H](Cc1c[nH]cn1)NC(=O)[C@@H](NC(=O)[C@H](CO)NC(=O)[C@@H]1CS[C@@H](C)[C@H]2NC(=O)[C@H](C)NC(=O)[C@H](NC(=O)[C@H](CCCCN)NC(=O)[C@H](CCSC)NC(=O)[C@H](CC(N)=O)NC(=O)[C@@H]3CS[C@@H](C)[C@@H](NC(=O)[C@H](CCCCN)NC(=O)[C@@H]4CS[C@@H](C)[C@@H](NC(=O)[C@@H]5CSC[C@@H](NC(=O)/C(=C/C)NC(=O)[C@@H](N)Cc6c[nH]c7ccccc67)C(=O)N[C@@H]([C@@H](C)CC)C(=O)NC(=C)C(=O)N[C@@H](CC(C)C)C(=O)N5)C(=O)N5CCC[C@H]5C(=O)NCC(=O)N4)C(=O)NCC(=O)N[C@@H](C)C(=O)N[C@@H](CC(C)C)C(=O)N[C@@H](CCSC)C(=O)NCC(=O)N3)[C@H](C)SC[C@H](NC2=O)C(=O)N[C@@H](Cc2c[nH]cn2)C(=O)N1)[C@@H](C)CC)C(C)C)C(=O)N[C@@H](CCCCN)C(=O)O [I1W] | 5.7 ± 0.2
